Test results taken from article PMC8009417, “Selective killing of homologous recombination-deficient cancer cell lines by inhibitors of the RPA:RAD52 protein-protein interaction” (PLoS ONE, 2021).
pEC50: −log10 of the molar value.

Columns and labels:
[1] = system: GFP-RAD51 foci in PE01 C4-2 cells; test: Radiation-induced GFP-RAD51 foci formation; assay type: cell-based, human; conditions: 3 nM pre-treatment, 15 Gy X-ray
Method: (§1) Cells without mitoxantrone and radiation (labeled C) were controls. The average percent of cells with foci (more than 5 foci per cell) are graphed from three independent experiments. More than 30 cells per experiment were analyzed. Error bars represent standard deviation.
(§2) Each cell line was seeded on a coverslip at 10^5 cells per well in a 24-well plate. After the 24 hour incubation, the cells were pre-incubated with mitoxantrone for 2 hours, then irradiated with X-ray at 15 Gy with the RS-2000 Irradiator. After 2~ 8 hours of the irradiation, the cells were fixed in 10% formaldehyde solution at room temperature for 30 min, followed by 10 min incubation in PBS containing 0.5% Triton X-100. After staining with 1 μg/ml H1399 Hoechst dye solution, each coverslip was mounted on a slide. GFP proteins were detected with a Zeiss 710 Confocal Laser Scanning Microscope, and images were processed using Zeiss ZEN software. A cell contained more than 5 foci was considered as positive.

[2] = system: PARPi-resistant UWB1.SYr13 cells; test: Cell viability assay (PrestoBlue, 72 h), UWB1.SYr13; assay type: cell-based; conditions: Homo sapiens, estimated from the graphs
From the text: (§3) BRCA1-deficient UWB1.289 cells corrected with wild-type BRCA1 gene (BRCA1+; closed triangle) and parental BRCA1-deficient UWB1.289 (BRCA1-; closed circle). Two PARPi-resistant cell lines derived from UWB1.289, UWB1.289.SYr12 (closed diamond) and UWB1.SYr13 (X), were also examined.
(§4) UWB1.289 (a gift from Dr. Lee Zou, Harvard Medical School, Boston, MA) were derived from a serous ovarian carcinoma with a germline BRCA1 mutation and a deletion of the wild-type allele. […] Two PARP-resistant cell lines, SYr12 and SYr13, were derived from the UWB1.289. The Mammary Epithelial growth media, along with SupplementMix solution for UWB1 cell lines, were obtained from PromoCell GmbH and mixed as described.
(§5) Cells were seeded 5 x 10^3 cells per well in 96-well plates in a 90 μL volume per well one day before treatment. Cells in 96-well plates were incubated with increasing concentrations of the compound or vehicle control (1% DMSO) for 72 hours. Each treatment plate contained nine concentrations of a compound in sextuplicate. Growth inhibition was determined using PrestoBlue reagent (Life Technologies, #A13261). Fluorescent measurements were taken using a Spectramax M5 plate reader (MDS). To assess cells’ replication in the absence of compounds as a control, six wells on each plate were treated with vehicle to be read in triplicate at the initial treatment day (T0) and at 72-hour read (T100).

[3] = system: UWB1.289 cells with or without BRCA1 restoration; test: Apoptosis by cleaved PARP western blot; assay type: cell-based, human; conditions: 0.2 μM for three days; BRCA1-mutated vs BRCA1-restored UWB1.289
Method: UWB1.289 cells with or without restoration of the BRCA1 expression were treated with 0.2 μM of mitoxantrone (MX) for three days. Olaparib (Ola) at 1 μM was used as control for the induction of apoptosis. Near EC50 concentrations were selected for each compound. After the treatment with each compound, cell lysates were prepared and cleaved PARP was detected with (A) anti-cleaved PARP antibody (Cell Signaling Technology #9541) and (B) anti-PARP antibody (Cell Signaling Technology #9542). Tubulin detected with anti-beta-tubulin antibody (Cell Signaling Technology #15115) was used as an internal control. (C) Ratios of cleaved PARP to tubulin were determined with ImageJ and graphed. Three independent experiments were performed and the mean values are shown. The bars indicate standard deviations. Statistical significance of differences was determined with Student t-test (* p<0.05 and ** p<0.01).

γH2AX (DNA damage) = test: Simple Western of γH2AX (DNA damage) after treatment; assay type: cell-based, human; conditions: 72 h at doses near EC50
Method: Fig 6 The effect of mitoxantrone treatment on RAD52 levels and DNA damage. […] Data and ANOVA statistical analyses are described in the material and methods section. Significance statistics are shown with single, double, or triple asterisks representing P<0.05, P<0.005, or P<0.0005, respectively.
For western analysis, each cell line was grown and treated as described above. Protein levels were measured in lysates by size separation with a ProteinSimple PeggySue instrument following the manufacturer’s recommendations. Lysates were prepared using the NanoPro Cell Lysis Kit with Bicine/CHAPS (ProteinSimple CBS403) at 0.75 mg/mL concentration when mixed with master mix (containing SDS, DTT and fluorescent molecular weight markers; ProteinSimple PS-FL01-8) and heated for 5 min at 95°C. Electrophoretic nanocapillary size separation of proteins was performed using default settings. After separation, UV light cross-linked proteins to the capillary wall. Capillaries were then washed and incubated with primary antibodies, washed, and incubated with anti-rabbit secondary antibody conjugated with HRP (ProteinSimple DM-001). Finally, luminol and peroxide were applied to generate chemoluminescence which was imaged by a CCD camera. Primary antibody concentrations were optimized and were diluted as follows: Abcam anti-RAD52 antibody (ab18263, diluted 1:25), R&D Systems Human Phospho-histone H2AX (S139) antibody (AF2288, diluted 1:100), and Cell Signalling Technology Pan-Actin antibody (#4968, diluted 1:2500).
The Simple western data were processed and analyzed with ProteinSimple Compass software. Peak areas were calculated using dropped lines. Each lysate was analyzed for RAD52 and γH2AX levels three times and for Actin two times (see S2 Fig). Replicate peak areas for RAD52 and γH2AX were averaged, divided by the average Actin peak area of that sample, multiplied by 100 and graphed using SigmaPlot 7.0.

[4] = system: homologous recombination (HR) in U2OS-DR cells; test: Cell-based DSB repair assay, HR (DR-GFP reporter, FACS); conditions: 4 nM, 2 h pre-treatment, three days
Method: (A) The effect of mitoxantrone (MX) on SSA and HR were studied with cell-based DSB repair assays. U2OS-SA and U2OS-DR cells were pre-treated with mitoxantrone for two hours before transfection of the SceI-expression plasmid. Then cells were grown in the presence of mitoxantrone for three days. DSB repair activities were determined by (B) FACS analysis. […] U2OS-SA cells were pre-treated with indicated concentrations of mitoxantrone for two hours, before I-SceI-expression vector transfection. After 72 hours incubation, the cells were harvested, and lysates were prepared. Lysate from each treatment was analyzed by 12% SDS-PAGE and the expression levels of I-SceI was determined by the western blot using anti-HA antibody. The p70 of RPA was used as a loading control. Ratios of I-SceI to p70 was obtained with ImageJ and are shown at the bottom of the image. C: control experiment without the addition of mitoxantrone. (D, E) Analysis of DSB repair activiies by western blots. […] At least three independent experiments were performed. Error bars represent standard deviations.

[5] = system: GFP-RAD52 foci in PE01 C4-2 cells; test: Radiation-induced GFP-RAD52 foci formation; assay type: cell-based, human; conditions: 3 nM pre-treatment, 15 Gy X-ray
Method: as §1, §2

[6] = system: PARPi-resistant UWB1.289.SYr12 cells; test: Cell viability assay (PrestoBlue, 72 h), UWB1.289.SYr12; assay type: cell-based; conditions: Homo sapiens, estimated from the graphs
From the text: as §3, §4, §5

[7] = system: BRCA2-revertant PE01 C4-2 cells (BRCA2+); test: Cell viability assay (PrestoBlue, 72 h), PE01 C4-2; conditions: Homo sapiens, C4-2, 72 h, read-out: EC50, cell viability

## O=C1c2c(O)ccc(O)c2C(=O)c2c(NCCNCCO)ccc(NCCNCCO)c21 [Mitoxantrone, mitoxantrone]
[1]
  Effect on radiation-induced RAD51 foci formation: did not suppress the radiation-induced RAD51 foci formation
[2]
  pEC50: 5.60
[3]
  Induction of apoptosis (cleaved PARP): preferentially induced apoptosis in the BRCA1-mutated UWB1.289
γH2AX (DNA damage); HCC1937 cell lines
  DNA damage (γH2AX) from treatment: low to negligible levels of DNA damage
γH2AX (DNA damage); PE01 cells
  DNA damage (γH2AX) from treatment: substantial increase in DNA damage
γH2AX (DNA damage); UWB1 cell lines
  DNA damage (γH2AX) from treatment: low to negligible levels of DNA damage
[4]
  HR suppression: 40% ± 7%
[5]
  Effect on radiation-induced RAD52 foci formation: inhibited the radiation-induced RAD52 foci formation
[6]
  pEC50: 5.62
[7]
  pEC50: 6.40
